Patent US8034811B2, “Hydroxamic acid esters and pharmaceutical use thereof” (Leo Pharma A/S, priority 2003, dated 2011)

Biological target: T1, human intracellular domain of KDR (VEGF Receptor-2) (Homo sapiens, UniProt P35968)
T1 construct: A fusion protein containing the intracellular domain (amino acids 793 to 1357) of the KDR and N-terminally tagged to GST; made in house; host or cells: Sf9 insect cells (baculovirus, pDEST20) for GST-KDR-cyt; E. coli BL21 (pGEX-4T-1) for GST-PLCγ
Test: In vitro KDR kinase assay
Format: biochemical
Conditions: IC50 as molar concentration; GST-KDR-cyt, substrate phospholipase Cγ, ATP 100 μM, 30 min room temperature, time-resolved fluorometry
Summary of the method: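 Sf9-expressed, constitutively active human KDR intracellular domain, diluted 3000–3500 fold, incubated 30 min at room temperature with 100 μM ATP on phospholipase Cγ-coated wells in TBS pH 7.4 with Mg acetate, compounds up to 10 μM, 0.1% DMSO max. Phosphotyrosine detected by Eu-PY-20 time-resolved fluorescence; IC50 by linear interpolation around 50% inhibition.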

T1 sequence (P35968 794-1356 limits assumed): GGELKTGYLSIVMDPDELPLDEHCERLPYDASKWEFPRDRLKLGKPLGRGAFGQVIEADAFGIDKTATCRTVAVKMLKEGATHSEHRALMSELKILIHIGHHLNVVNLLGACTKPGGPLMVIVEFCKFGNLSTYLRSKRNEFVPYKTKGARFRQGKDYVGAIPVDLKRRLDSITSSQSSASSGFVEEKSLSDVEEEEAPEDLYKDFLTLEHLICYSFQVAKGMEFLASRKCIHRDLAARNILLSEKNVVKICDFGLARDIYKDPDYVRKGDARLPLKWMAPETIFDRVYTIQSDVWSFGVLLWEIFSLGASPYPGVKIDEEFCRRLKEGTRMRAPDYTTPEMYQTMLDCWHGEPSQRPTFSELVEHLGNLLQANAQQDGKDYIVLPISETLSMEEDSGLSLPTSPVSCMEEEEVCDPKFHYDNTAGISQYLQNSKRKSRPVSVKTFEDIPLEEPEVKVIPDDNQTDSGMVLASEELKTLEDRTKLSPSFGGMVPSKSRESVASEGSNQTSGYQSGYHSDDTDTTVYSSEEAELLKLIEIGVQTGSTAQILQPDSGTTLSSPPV

Row | IC50 [nM] | SMILES
1 | 63.1 | O=C(NOCc1ccc(F)cc1)c1ccccc1NCc1ccnc(Br)c1 [Compound 204, 2-[(2-Bromo-pyridin-4-ylmethyl)-amino]-N-(4-fluoro-benzyloxy)benzamide]
2 | 39.8 | N#Cc1ccc(CONC(=O)c2ccccc2NCc2ccnc(N)c2)cc1 [Compound 206, 2-[(2-Amino-pyridin-4-ylmethyl)-amino]-N-(4-cyano-benzyloxy)-benzamide]
3 | 7.94 | CNC(=O)Nc1cc(CNc2ccccc2C(=O)NOCc2ccc(C)c(F)c2F)ccn1 [Compound 213, N-(2,3-Difluoro-4-methyl-benzyloxy)-2-{[2-(3-methyl-ureido)-pyridin-4-ylmethyl]-amino}-benzamide]
4 | 50.1 | CCOC(=O)CNC(=O)Nc1cc(CNc2ccccc2C(=O)NOCc2ccc(C#N)cc2)ccn1 [compound 214]
5 | 10 | N#Cc1ccc(CONC(=O)c2ccccc2NCc2ccnc(NC(=O)NCC(=O)O)c2)cc1 [compound 216]
6 | 7.94 | O=C(O)CNC(=O)Nc1cc(CNc2ccccc2C(=O)NOCC2CCCC2)ccn1 [compound 217]
7 | 6.31 | CC(=O)OCC(=O)Nc1cc(CNc2ccccc2C(=O)NOCc2ccc(C#N)cc2)ccn1 [compound 222]
8 | 7.94 | CCOC(=O)Nc1cc(CNc2ccccc2C(=O)NOCc2ccc(C#N)cc2)ccn1 [compound 225]
9 | 5.01 | O=C(NOCC1CCCC1)c1ccccc1NCc1ccnc(NC(=O)C2CC2)c1 [compound 227]
10 | 6.31 | O=C(CC1NC(=O)NC1=O)Nc1cc(CNc2ccccc2C(=O)NOCC2CCCC2)ccn1 (stereo not drawn) [compound 228]
11 | 25.1 | O=C(NOCc1ccccc1)c1ccccc1NCc1ccnc2ccccc12 [compound 230]
12 | 20 | Cc1nc(CONC(=O)c2ccccc2NCc2ccnc3ccccc23)cs1 [compound 232]
13 | 63.1 | O=C(NOCC1CCOCC1)c1ccccc1NCc1ccnc2ccccc12 [compound 234]
14 | 63.1 | COc1ccc(CNc2ccccc2C(=O)NOCc2ccc(C#N)cc2OC)cn1 [compound 235]
15 | 79.4 | COc1ccc(CNc2ccccc2C(=O)NOCc2ccc(C#N)cc2)cn1 [compound 237]
16 | 63.1 | CC(Nc1ccccc1C(=O)NOCc1ccc(C#N)cc1)c1ccncc1 (stereo not drawn) [compound 244]
17 | 50.1 | N#Cc1ccc(CONC(=O)c2ccccc2NCc2ccc(=O)[nH]c2)cc1 [compound 247]

The remaining lines, values behind:

Row | SMILES | IC50 [nM]
18 | O=C(NOCc1ccc(F)cc1)c1ccccc1NCc1ccc2occc2c1 [Compound 199, 2-[(Benzofuran-5-ylmethyl)-amino]-N-(4-fluoro-benzyloxy)-benzamide] | 50.1
19 | O=C(NOCc1ccc(F)cc1)c1ccccc1NCc1ccnc(N2CCOCC2)c1 [Compound 207, N-(4-Fluoro-benzyloxy)-2-[(2-morpholin-4-yl-pyridin-4-ylmethyl)-amino]-benzamide] | 79.4
20 | CS(=O)(=O)Nc1cc(CNc2ccccc2C(=O)NOCC2CCCC2)ccn1 [Compound 208, N-Cyclopentylmethoxy-2-[(2-methanesulfonylamino-pyridin-4-ylmethyl)-amino]-benzamide] | 79.4
21 | CNC(=O)Nc1cc(CNc2ccccc2C(=O)NOCc2ccc(C#N)cc2)ccn1 [Compound 210, N-(4-Cyano-benzyloxy)-2-{[2-(3-methyl-ureido)-pyridin-4-ylmethyl]-amino}-benzamide] | 7.94
22 | CNC(=O)Nc1cc(CNc2ccccc2C(=O)NOCc2ccc(C#N)cc2OC)ccn1 [Compound 211, N-(4-Cyano-2-methoxy-benzyloxy)-2-{[2-(3-methyl-ureido)-pyridin-4-ylmethyl]-amino}-benzamide] | 20
23 | CNC(=O)Nc1cc(CNc2ccccc2C(=O)NOCC2CCCC2)ccn1 [Compound 212, N-Cyclopentylmethoxy-2-{[2-(3-methyl-ureido)-pyridin-4-ylmethyl]-amino}-benzamide] | 10
24 | CCOC(=O)CNC(=O)Nc1cc(CNc2ccccc2C(=O)NOCC2CCCC2)ccn1 [compound 215] | 63.1
25 | C=C(C)C(=O)OCCNC(=O)Nc1cc(CNc2ccccc2C(=O)NOCC2CCCC2)ccn1 [compound 219] | 39.8
26 | N#Cc1ccc(CONC(=O)c2ccccc2NCc2ccnc(NC(=O)NCCO)c2)cc1 [compound 220] | 7.94
27 | O=C(NCCO)Nc1cc(CNc2ccccc2C(=O)NOCC2CCCC2)ccn1 [compound 221] | 7.94
28 | CC(=O)OCC(=O)Nc1cc(CNc2ccccc2C(=O)NOCC2CCCC2)ccn1 [compound 223] | 31.6
29 | N#Cc1ccc(CONC(=O)c2ccccc2NCc2ccnc(NC(=O)CO)c2)cc1 [compound 224] | 6.31
30 | N#Cc1ccc(CONC(=O)c2ccccc2NCc2ccnc(NC(=O)C3CC3)c2)cc1 [compound 226] | 6.31
31 | Nc1cc(CNc2ccccc2C(=O)NOCC2CCCC2)ccn1 [compound 229] | 7.94
32 | N#Cc1ccc(CONC(=O)c2ccccc2NCc2ccnc3ccccc23)cc1 [compound 231] | 39.8
33 | O=C(NOCC1CCCC1)c1ccccc1NCc1ccnc2ccccc12 [compound 233] | 10
34 | COc1ccc(CNc2ccccc2C(=O)NOCc2ccccc2)cn1 [compound 236] | 79.4
35 | CNC(=O)Nc1cc(CNc2ccccc2C(=O)NOCC2CCCCO2)ccn1 (stereo not drawn) [compound 245] | 7.94
36 | COCC(=O)Nc1cc(CNc2ccccc2C(=O)NOCC2CCCC2)ccn1 [compound 246] | 20
